Measured values as given in ChEMBL document CHEMBL1131866, “Stereoisomeric acylamidomorpholinium carnitine analogues: selective inhibitors of carnitine palmitoyltransferase I and II” (Bioorg Med Chem Lett, 1999).

Molecular target: T1, Carnitine O-palmitoyltransferase 2, mitochondrial (Rattus norvegicus) (UniProt P18886)
T1 sequence (whole entry): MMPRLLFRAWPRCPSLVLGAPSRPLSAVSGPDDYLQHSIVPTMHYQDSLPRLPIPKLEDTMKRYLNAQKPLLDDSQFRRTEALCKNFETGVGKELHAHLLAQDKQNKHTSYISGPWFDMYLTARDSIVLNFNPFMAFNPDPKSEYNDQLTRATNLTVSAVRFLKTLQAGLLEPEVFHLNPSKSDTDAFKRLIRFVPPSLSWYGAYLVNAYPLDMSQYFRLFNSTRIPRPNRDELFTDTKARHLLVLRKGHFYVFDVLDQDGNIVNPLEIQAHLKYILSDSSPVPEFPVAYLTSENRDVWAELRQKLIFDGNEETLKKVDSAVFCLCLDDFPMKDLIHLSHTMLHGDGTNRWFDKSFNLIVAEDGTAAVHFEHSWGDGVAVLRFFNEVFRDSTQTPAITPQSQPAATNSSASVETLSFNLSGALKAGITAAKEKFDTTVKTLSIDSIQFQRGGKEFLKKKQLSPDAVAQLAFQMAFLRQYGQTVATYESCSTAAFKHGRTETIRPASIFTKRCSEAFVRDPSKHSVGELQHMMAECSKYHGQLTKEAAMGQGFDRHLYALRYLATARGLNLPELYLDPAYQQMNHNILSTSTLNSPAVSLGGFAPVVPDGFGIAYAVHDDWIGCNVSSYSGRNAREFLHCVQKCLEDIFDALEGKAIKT
Assay: Inhibitory activity against rat-liver mitochondrial Carnitine palmitoyl transferase II
Conditions: concentration not given here

inhibition: 41%
Structure (SMILES): CCCCCCCCCCCCCC(=O)NC[C@H]1C[N+](C)(C)C[C@@H](CC(=O)[O-])O1
